Reference: US20160257697A1, “THIOPHENE-SUBSTITUTED TETRACYCLIC COMPOUNDS AND METHODS OFUSE THEREOF FOR THE TREATMENT OF VIRAL DISEASES” (priority 2013, published 2016)
Where two headings read alike, the source gives them in different places.

Key:
Assay in all cases: microbe, parasite or virus in culture
Type in all cases: cell-based, Hepatitis C virus (HCV)
Conditions in all cases: Replicon Assay A
[1] = test system: HCV replicon 1AY93H
Procedure, shortened: (§1)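 Three-day treatment of replicon cells (2000/well, 5% FBS, 0.5% DMSO), followed by TaqMan RT-PCR of replicon RNA with cyclophilin as internal control.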

[2] = test system: HCV replicon 1A
Procedure, shortened: as §1

[3] = test system: HCV replicon 2B
Procedure, shortened: as §1

[4] = read-out: 1A Y93H IC50, replicon 1AY93H
[5] = Hepatitis C virus, read-out: 2B IC50 (nM), replicon 2B
[6] = read-out: 1A Y93H IC50, HCV replicon 1A Y93H
[7] = read-out: 2B IC50, HCV replicon 2B
[8] = Hepatitis C virus, read-out: 1A Y93H IC50, HCV replicon 1A Y93H
[9] = Hepatitis C virus, HCV replicon 1A
[10] = Hepatitis C virus, read-out: 2B IC50, HCV replicon 2B
[11] = Hepatitis C virus, read-out: 1A Y93H IC50 (nM), replicon 1AY93H

SMILES | IC50 [1, 4] [nM] | IC50 ([2]; replicon 1A) [nM] | IC50 ([3]; read-out: 2B IC50, replicon 2B) [nM] | further results
COC(=O)NC(C(=O)N1CCC[C@H]1c1ncc(-c2cc(F)c3c(c2)OC(c2ccc(C4CC4)s2)n2c-3cc3cc(-c4cnc([C@@H]5C[C@H]6C[C@H]6N5C(=O)[C@@H](NC(=O)OC)C(C)C)[nH]4)ccc32)[nH]1)C(C)(C)F (single isomer, unassigned) [Compound 98] | 0.06 | 0.0011 | – | IC50 [3, 5]: 2.16 nM
CCc1ccc(C2Oc3cc(-c4cnc([C@@H]5CCCN5C(=O)C(NC(=O)OC)C5CCOC(C)(C)C5)[nH]4)cc(F)c3-c3cc4cc(-c5cnc([C@@H]6CCCN6C(=O)C(NC(=O)OC)C6CCOC(C)(C)C6)[nH]5)ccc4n32)s1 (single isomer, unassigned) [Compound 292] | 0.044 | 0.0027 | 0.106 | –
COC(=O)N[C@H](C(=O)N1CCC[C@H]1c1ncc(-c2cc(C)c3c(c2)OC(c2cc(C)c(C)s2)n2c-3cc3cc(-c4cnc([C@@H]5CCCN5C(=O)[C@@H](NC(=O)OC)C(C)C)[nH]4)ccc32)[nH]1)C(C)C (single isomer, unassigned) [Compound 16] | 0.49 | 0.0024 | 0.171 | –
COC(=O)N[C@H](C(=O)N1C[C@H](F)C[C@H]1c1nc(-c2ccc3c(c2)OC(c2ccc(C)s2)n2c-3cc3cc(-c4c[nH]c([C@@H]5C[C@H]6C[C@H]6N5C(=O)[C@@H](NC(=O)OC)C5CCOCC5)n4)ccc32)c[nH]1)C1CCOCC1 (single isomer, unassigned) [Compound 730] | – | – | – | IC50 [1, 6]: 0.06 nM; IC50 ([2]; HCV replicon 1A): 0.067 nM; IC50 [3, 7]: 0.13 nM
CCc1ccc(C2Oc3cc(-c4cnc([C@@H]5CCCN5C(=O)C(NC(=O)OC)C5CCOC(C)(C)C5)[nH]4)cc(F)c3-c3cc4cc(-c5cnc([C@@H]6CCCN6C(=O)[C@@H](NC(=O)OC)C(C)C)[nH]5)ccc4n32)s1 (single isomer, unassigned) [Compound 164] | 0.13 | 0.0015 | 0.53 | –
COC(=O)N[C@H](C(=O)N1CCC[C@H]1c1ncc(-c2cc(F)c3c(c2)OC(c2ccsc2)n2c-3cc3cc(-c4cnc([C@@H]5CCCN5C(=O)[C@@H](NC(=O)OC)C(C)C)[nH]4)ccc32)[nH]1)C(C)C (single isomer, unassigned) [Compound 318] | 5.9 | 0.0019 | 6.87 | –
COC(=O)NC(C(=O)N1CCC[C@H]1c1ncc(-c2ccc3c(c2)cc2n3C(c3ccc(C4CC4)s3)Oc3cc(-c4cnc([C@@H]5CCCN5C(=O)[C@@H](NC(=O)OC)C(C)C)[nH]4)cc(F)c3-2)[nH]1)C1C[C@@H](C)O[C@H](C)C1 (single isomer, unassigned) [Compound 192] | 0.028 | 0.0011 | 0.047 | –
COC(=O)N[C@H](C(=O)N1CCC[C@H]1c1ncc(-c2cc(F)c3c(c2)OC(c2ccc(CCF)s2)n2c-3cc3cc(-c4cnc([C@@H]5CCCN5C(=O)[C@@H](NC(=O)OC)C(C)C)[nH]4)ccc32)[nH]1)C(C)C (single isomer, unassigned) [Compound 43] | 0.12 | – | 0.54 | IC50 ([2]; Hepatitis C virus, replicon 1A): 0.0019 nM
COC(=O)NC(C(=O)N1CCC[C@H]1c1ncc(-c2ccc3c(c2)cc2n3C(c3ccc(C4CC4)s3)Oc3cc(-c4cnc([C@@H]5CCCN5C(=O)[C@@H](NC(=O)OC)C(C)C)[nH]4)cc(F)c3-2)[nH]1)C1CCO[C@H](C)C1 (single isomer, unassigned) [Compound 141] | 12.8 | 0.0584 | 21.4 | –
COC(=O)NC(C(=O)N1CCC[C@H]1c1ncc(-c2ccc3c(c2)cc2n3C(c3ccc(C4CC4)s3)Oc3cc(-c4cnc([C@@H]5CCCN5C(=O)[C@@H](NC(=O)OC)C(C)C)[nH]4)cc(F)c3-2)[nH]1)C1C[C@@H](C)O[C@H](C)C1 (single isomer, unassigned) [Compound 191] | 0.32 | 0.0014 | 0.89 | –
COC(=O)N[C@H](C(=O)N1CCC[C@H]1c1ncc(-c2cc(F)c3c(c2)OC(c2sc(C4CC4)cc2C)n2c-3cc3cc(-c4cnc([C@@H]5CCCN5C(=O)[C@@H](NC(=O)OC)C(C)C)[nH]4)ccc32)[nH]1)C(C)C (single isomer, unassigned) [Compound 329] | 0.937 | 0.0012 | 0.605 | –
COC(=O)NC(C(=O)N1CCC[C@H]1c1ncc(-c2ccc3c(c2)cc2n3C(c3ccc(C(C)C)s3)Oc3cc(-c4cnc([C@@H]5CCCN5C(=O)[C@@H](NC(=O)OC)C(C)C)[nH]4)cc(F)c3-2)[nH]1)C1CCOC(C)(C)C1 (single isomer, unassigned) [Compound 242] | 0.75 | 0.0011 | 4.42 | –
COC(=O)N[C@H](C(=O)N1CCC[C@H]1c1nc(-c2ccc3c(c2)OC(c2ccc(C)s2)n2c-3cc3cc(-c4c[nH]c([C@@H]5NCCN5C(=O)[C@@H](NC(=O)OC)C(C)C)n4)ccc32)c[nH]1)C(C)C (single isomer, unassigned) [Compound 701] | – | – | – | IC50 [1, 6]: 0.085 nM; IC50 ([2]; HCV replicon 1A): 0.003 nM; IC50 [3, 7]: 0.15 nM
COC(=O)N[C@H](C(=O)N1C[C@H](F)C[C@H]1c1ncc(-c2ccc3c(c2)OC(c2cc(C)c(C)s2)n2c-3cc3cc(-c4c[nH]c([C@@H]5C[C@@H](F)CN5C(=O)[C@@H](NC(=O)OC)C5CCOCC5)n4)ccc32)[nH]1)C(C)C (mixture of isomers) [Compound 725] | – | – | – | IC50 [1, 8]: 0.058 nM; IC50 [2, 9]: 0.035 nM; IC50 [3, 10]: 0.76 nM
COC(=O)NC(C(=O)N1CCC[C@H]1c1ncc(-c2ccc3c(c2)cc2n3C(c3ccc(C4CC4)s3)Oc3cc(-c4cnc([C@@H]5CCCN5C(=O)[C@@H](NC(=O)OC)C(C)C)[nH]4)cc(F)c3-2)[nH]1)C1C[C@@H](C)O[C@H](C)C1 (single isomer, unassigned) [Compound 193] | 4.75 | 0.0256 | 18.6 | –
COC(=O)NC(C(=O)N1CCC[C@H]1c1ncc(-c2ccc3c(c2)cc2n3C(c3cc(C)c(C)s3)Oc3cc(-c4cnc([C@@H]5CCCN5C(=O)[C@@H](NC(=O)OC)C5CCOCC5)[nH]4)cc(F)c3-2)[nH]1)C(C)(C)F (single isomer, unassigned) [Compound 131] | 3.83 | 0.0078 | 9.78 | –
COC(=O)N[C@H](C(=O)N1CCC[C@H]1c1ncc(-c2cc(F)c3c(c2)OC(c2cc4c(s2)CCCC4)n2c-3cc3cc(-c4cnc([C@@H]5CCCN5C(=O)[C@@H](NC(=O)OC)C(C)C)[nH]4)ccc32)[nH]1)C(C)C (single isomer, unassigned) [Compound 55] | – | – | – | IC50 [1, 11]: 3.26 nM; IC50 ([2]; Hepatitis C virus, replicon 1A): 0.0019 nM; IC50 [3, 5]: 2.53 nM
COC(=O)N[C@H](C(=O)N1CCC[C@H]1c1ncc(-c2cc(F)c3c(c2)OC(c2ccc(C4CC4)s2)n2c-3cc3cc(-c4cnc([C@@H]5C[C@@H](F)CN5C(=O)[C@@H](c5ccccc5)N5CCC5)[nH]4)ccc32)[nH]1)C(C)C (mixture of isomers) [Compound 109] | – | – | – | IC50 [1, 11]: 4.5 nM; IC50 ([2]; Hepatitis C virus, replicon 1A): 0.0058 nM; IC50 [3, 5]: 24.4 nM
CCc1ccc(C2Oc3cc(-c4cnc([C@@H]5CCCN5C(=O)[C@@H](NC(=O)OC)C(C)C)[nH]4)ccc3-c3c(F)c4cc(-c5cnc([C@@H]6CCCN6C(=O)[C@@H](NC(=O)OC)C(C)C)[nH]5)ccc4n32)s1 (single isomer, unassigned) [Compound 603] | – | – | – | IC50 [1, 6]: 0.183 nM; IC50 ([2]; HCV replicon 1A): 0.0032 nM; IC50 [3, 7]: 0.496 nM
COC(=O)NC(C(=O)N1CCC[C@H]1c1ncc(-c2ccc3c(c2)cc2n3C(c3ccc(C4CC4)s3)Oc3cc(-c4cnc([C@@H]5C[C@@H](F)CN5C(=O)[C@@H](NC(=O)OC)C(C)C)[nH]4)cc(F)c3-2)[nH]1)C(C)(C)F (single isomer, unassigned) [Compound 112] | 0.23 | 0.0022 | 7.07 | –
COC(=O)N[C@H](C(=O)N1CCC[C@H]1c1nc(-c2cc(F)c3c(c2)OC(c2ccc(C4CC4)s2)n2c-3cc3cc(-c4c[nH]c([C@@H]5C[C@H]6C[C@H]6N5C(=O)[C@@H](NC(=O)OC)C(C)C)n4)ccc32)c[nH]1)C(C)C (single isomer, unassigned) [Compound 719] | – | – | – | IC50 [1, 6]: 0.032 nM; IC50 ([2]; HCV replicon 1A): 0.01 nM; IC50 [3, 7]: 0.036 nM
COC(=O)N[C@H](C(=O)N1C[C@H](F)C[C@H]1c1ncc(-c2ccc3c(c2)OC(c2ccc(C)s2)n2c-3cc3cc(-c4cnc([C@@H]5C[C@H]6C[C@H]6N5C(=O)[C@@H](NC(=O)OC)C(C)C)[nH]4)ccc32)[nH]1)C(C)C (single isomer, unassigned) [Compound 706] | – | – | – | IC50 [1, 6]: 2.45 nM; IC50 ([2]; HCV replicon 1A): 0.023 nM; IC50 [3, 7]: 4.61 nM
COC(=O)N[C@H](C(=O)N1CCC[C@H]1c1ncc(-c2cc(F)c3c(c2)OC(c2cccs2)n2c-3cc3cc(-c4cnc([C@@H]5CCCN5C(=O)[C@@H](NC(=O)OC)C(C)C)[nH]4)ccc32)[nH]1)C(C)C (mixture of isomers) [Compound 500] | – | – | – | IC50 [1, 8]: 0.367 nM; IC50 [2, 9]: 0.0219 nM; IC50 [3, 10]: 2.5 nM
COC(=O)NC(C(=O)N1CCC[C@H]1c1ncc(-c2cc(F)c3c(c2)OC(c2ccc(C4CC4)s2)n2c-3cc3cc(-c4cnc([C@@H]5CCCN5C(=O)[C@@H](NC(=O)OC)C5CCOCC5)[nH]4)ccc32)[nH]1)C(C)(C)F (single isomer, unassigned) [Compound 171] | 1.4 | 0.0131 | 4.06 | –
CCc1ccc(C2Oc3cc(-c4c[nH]c([C@@H]5CCCN5C(=O)[C@@H](NC(=O)OC)C(C)C)n4)ccc3-c3cc4c(F)c(-c5c[nH]c([C@@H]6CCCN6C(=O)C(NC(=O)OC)C6C[C@@H](C)O[C@@H](C)C6)n5)ccc4n32)s1 (single isomer, unassigned) [Compound 360] | 3.56 | – | 2.52 | IC50 ([2]; Hepatitis C virus, replicon 1A): 0.0025 nM
